Measurements as given in patent US11957759B1, “Rapidly accelerated fibrosarcoma (RAF) degrading compounds and associated methods of use” (Arvinas Operations, Inc., priority 2022, dated 2024).

How the values were obtained:
B-RAF V600E = molecular target: T1, B-RAF V600E (Homo sapiens, UniProt P15056, V600E); experiment: Target protein degradation, assay A: T-Rex 293 cells, HA-B-RAF_V600E, 96 well format; assay type: cell-based; conditions: T-Rex 293 HA-B-RAF_V600E cells, 24 hours, Examples 1-82
T1 construct: expressed in transfected cells; host or cells: T-Rex 293 cells (Invitrogen #R71007)
T1 sequence (P15056 whole entry V600E): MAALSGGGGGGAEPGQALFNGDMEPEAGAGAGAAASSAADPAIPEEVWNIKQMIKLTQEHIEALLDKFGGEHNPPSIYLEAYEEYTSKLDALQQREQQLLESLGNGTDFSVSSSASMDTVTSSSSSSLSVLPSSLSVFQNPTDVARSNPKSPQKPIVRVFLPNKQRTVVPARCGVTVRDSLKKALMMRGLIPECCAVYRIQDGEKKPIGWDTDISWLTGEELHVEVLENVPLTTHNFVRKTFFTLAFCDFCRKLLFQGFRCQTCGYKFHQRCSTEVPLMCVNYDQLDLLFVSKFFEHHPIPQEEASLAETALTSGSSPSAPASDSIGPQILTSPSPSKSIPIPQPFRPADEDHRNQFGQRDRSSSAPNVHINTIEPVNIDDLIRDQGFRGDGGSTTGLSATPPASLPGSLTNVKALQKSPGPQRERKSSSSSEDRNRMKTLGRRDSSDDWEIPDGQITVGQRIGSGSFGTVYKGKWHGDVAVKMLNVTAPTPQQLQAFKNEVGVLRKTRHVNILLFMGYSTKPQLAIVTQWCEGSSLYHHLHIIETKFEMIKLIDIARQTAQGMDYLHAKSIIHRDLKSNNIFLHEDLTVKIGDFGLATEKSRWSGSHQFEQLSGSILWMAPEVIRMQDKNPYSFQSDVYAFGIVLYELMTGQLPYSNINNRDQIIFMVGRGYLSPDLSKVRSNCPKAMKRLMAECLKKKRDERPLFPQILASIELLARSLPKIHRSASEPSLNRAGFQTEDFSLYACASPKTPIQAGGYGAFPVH
Method: A. T-Rex 293 Cells (96 well format)
T-Rex 293 cells were purchased from Invitrogen (#R71007), and stably transfected with a pcDNA4/TO_HA-B-RAF_V600E construct, using 400 ug Zeocin for selection. V600e cells are plated in ulbecco's Modified Eagle Medium (DMEM; Gibco #11965118) containing 10% fetal bovine serum (FBS; Gibco #16000044) and 1 ng/mL doxycycline (Selleckchem #4163) at a density of 5,000 cells/well in 50 μl on poly-D-lysine (PDL) coated, black clear bottom 96-well plates (Corning #354640) and incubated for 24 hours at 37° C. with 5% CO2. The following day 50 ul of tested compound was added at 2× concentration in DMEM with a final concentration ranging from 1 μM to 0.1 nM in 0.1% dimethylsulfoxide (DMSO), and incubated for 24 hours at 37° C. with 5% CO2. At the end of the experimental treatment, the media was flicked off and cells washed once with phosphate-buffered saline (PBS)++(PBS with CaCl and MgCl) and gently replacing with 200 μl PBS++ per well. The PBS++ was removed and 50 uL 4% paraformaldehyde (PFA; EMS #15710) in PBS++ was added, and incubate at room temperature for 15 minutes. Cells were washed once with PBS++ and 50 uL 0.1% Triton X-100 (Fisher #BP151-500) in PBS++ was added. Plate was incubate for 5 minutes at room temperature. Cells were was once with PBS++. Cells were blocked with 100 uL Licor blocking buffer (Licor #927-50000) for 1 hour at room temperature. Next, 50 uL of HA antibody (CST #3724) at 1:1000 in Licor blocking buffer was added, and the plate icubate overnight at 4° C. The plates were parafilmed to prevent evaporation. Plate was washed three times with 200 uL PBS++. Fifty microliters of HCS secondary antibody solution [1:1000 Hoechst (Invitrogen #H3570), 1:1000 phalloidin (Invitrogen #A22287) and 1:5000 Alexa fluor (Invitrogen #A11008)] was added and incubated for 1 hour. Plate was wash three times with 200 uL PBS++, and imaged on a high content reader (ImageXpress Micro XLS, Molecular Devices).
(§1) The concentration of an exemplary compound that leads to half maximal degradation (DC50) as well as the maximum degradation observed (Dmax, conventionally expressed as a percentage of control) is shown below in Table 2.

B-RAF G466V = molecular target: T2, B-RAF G466V (Homo sapiens, UniProt P15056, G466V); experiment: Target protein degradation, assay B: T-Rex 293 cells, HA-B-RAF_G466V, 96 well format; assay type: cell-based; conditions: T-Rex 293 HA-B-RAF_G466V cells, 24 hours, Examples 1-82
T2 construct: expressed in transfected cells; host or cells: T-Rex 293 cells (Invitrogen #R71007)
T2 sequence (P15056 whole entry G466V): as the sequence (P15056 whole entry V600E) above, with G466V, E600V counted along it
Method: B. T-Rex 293 Cells (96 Well Format)
T-Rex 293 cells were purchased from Invitrogen (#R71007), and stably transfected with a pcDNA4/TO_HA-B-RAF_G466V construct, using 400 ug Zeocin for selection. G466V cells are plated in ulbecco's Modified Eagle Medium (DMEM; Gibco #11965118) containing 10% fetal bovine serum (FBS; Gibco #16000044) and 0.75 ng/mL doxycycline (Selleckchem #4163) at a density of 5,000 cells/well in 50 μl on poly-D-lysine (PDL) coated, black clear bottom 96-well plates (Corning #354640) and incubated for 24 hours at 37° C. with 5% CO2. The following day 50 ul of tested compound was added at 2× concentration in DMEM with a final concentration ranging from 30 nM to 3 pM in 0.1% dimethylsulfoxide (DMSO), and incubated for 24 hours at 37° C. with 5% CO2. At the end of the experimental treatment, the media was flicked off and cells washed once with phosphate-buffered saline (PBS)++(PBS with CaCl and MgCl) and gently replacing with 200 μl PBS++ per well. The PBS++ was removed and 50 uL 4% paraformaldehyde (PFA; EMS #15710) in PBS++ was added, and incubate at room temperature for 15 minutes. Cells were washed once with PBS++ and 50 uL 0.1% Triton X-100 (Fisher #BP151-500) in PBS++ was added. Plate was incubate for 5 minutes at room temperature. Cells were was once with PBS++. Cells were blocked with 100 uL Licor blocking buffer (Licor #927-50000) for 1 hour at room temperature. Next, 50 uL of HA antibody (CST #3724) at 1:1000 in Licor blocking buffer was added, and the plate icubate overnight at 4° C. The plates were parafilmed to prevent evaporation. Plate was washed three times with 200 uL PBS++. Fifty microliters of HCS secondary antibody solution [1:1000 Hoechst (Invitrogen #H3570), 1:1000 phalloidin (Invitrogen #A22287) and 1:5000 Alexa fluor (Invitrogen #A11008)] was added and incubated for 1 hour. Plate was wash three times with 200 uL PBS++, and imaged on a high content reader (ImageXpress Micro XLS, Molecular Devices).
as §1

SMILES	DC50 (B-RAF V600E) [nM]	Dmax (B-RAF V600E) [%]	DC50 (B-RAF G466V) [nM]	Dmax (B-RAF G466V) [%]
N#Cc1c(NS(=O)(=O)N2CC[C@@H](F)C2)ccc(F)c1Oc1ccc2ncn(-c3ccc(N4CCN(CC5CCN(c6ccc(F)c(C(=O)NC7CCC(=O)NC7=O)c6)CC5)CC4)cc3)c(=O)c2c1 (stereo partly drawn) [Example 15, 5-(4-{[4-(4-{6-[2-cyano-6-fluoro-3-({[(3R)-3-fluoropyrrolidin-1-yl]sulfonyl}amino)phenoxy]-4-oxo-3,4-dihydroquinazolin-3-yl}phenyl)piperazin-1-yl]methyl}piperidin-1-yl)-N-(2,6-dioxopiperidin-3-yl)-2-fluorobenzamide]	> 500	–	> 30	–
N#Cc1c(NS(=O)(=O)N2CC[C@@H](F)C2)ccc(F)c1Oc1ccc2ncn(-c3cnc(N4CCN(c5ccc6c(c5)C(=O)N(C5CCC(=O)NC5=O)C6=O)CC4)nc3)c(=O)c2c1 (stereo partly drawn) [Example 31, (3R)-N-(2-cyano-3-{[3-(2-{4-[2-(2,6-dioxopiperidin-3-yl)-1,3-dioxo-2,3-dihydro-1H-isoindol-5-yl]piperazin-1-yl}pyrimidin-5-yl)-4-oxo-3,4-dihydroquinazolin-6-yl]oxy}-4-fluorophenyl)-3-fluoropyrrolidine-1-sulfonamide]	> 500	–	> 30	–
N#Cc1c(NS(=O)(=O)N2CC[C@@H](F)C2)ccc(F)c1Oc1ccc2ncn(-c3ccc(N4CCN(C(=O)CC5(O)CCN(c6ccc7c(c6)CN([C@H]6CCC(=O)NC6=O)C7=O)CC5)CC4)nc3)c(=O)c2c1 [Example 65, (3R)-N-(2-cyano-3-{[3-(6-{4-[2-(1-{2-[(3S)-2,6-dioxopiperidin-3-yl]-1-oxo-2,3-dihydro-1H-isoindol-5-yl}-4-hydroxypiperidin-4-yl)acetyl]piperazin-1-yl}pyridin-3-yl)-4-oxo-3,4-dihydroquinazolin-6-yl]oxy}-4-fluorophenyl)-3-fluoropyrrolidine-1-sulfonamide]	> 500	–	10 to 30	35 to 70
N#Cc1c(NS(=O)(=O)N2CC[C@@H](F)C2)ccc(F)c1Oc1ccc2ncn(-c3ccc(N4CCN(C(=O)CC5(O)CCN(c6ccc(C7CCC(=O)NC7=O)cc6F)CC5)CC4)cc3)c(=O)c2c1 (stereo partly drawn) [Example 66, (3R)-N-{2-cyano-3-[(3-(4-[4-(2-{1-[4-(2,6-dioxopiperidin-3-yl)-2-fluorophenyl]-4-hydroxypiperidin-4-yl}acetyl)piperazin-1-yl]phenyl}-4-oxo-3,4-dihydroquinazolin-6-yl)oxy]-4-fluorophenyl}-3-fluoropyrrolidine-1-sulfonamide]	50 to 500	35 to 70	> 30	–
N#Cc1c(NS(=O)(=O)N2CC[C@@H](F)C2)ccc(F)c1Oc1ccc2ncn(-c3ccc(N4CCN(C(=O)CC5(O)CCN(c6ccc(NC7CCC(=O)NC7=O)cc6F)CC5)CC4)cc3)c(=O)c2c1 (stereo partly drawn) [Example 67, (3R)-N-{2-cyano-3-[(3-(4-{4-[2-(1-{4-[(2,6-dioxopiperidin-3-yl)amino]-2-fluorophenyl}-4-hydroxypiperidin-4-yl)acetyl]piperazin-1-yl}phenyl)-4-oxo-3,4-dihydroquinazolin-6-yl]oxy}-4-fluorophenyl)-3-fluoropyrrolidine-1-sulfonamide]	50 to 500	35 to 70	> 30	–
N#Cc1c(NS(=O)(=O)N2CC[C@@H](F)C2)ccc(F)c1Oc1ccc2ncn(-c3cnc(N4CCN(C(=O)CC5(O)CCN(c6ccc7c(c6)CN([C@H]6CCC(=O)NC6=O)C7=O)CC5)CC4)nc3)c(=O)c2c1 [Example 68, (3R)-N-(2-cyano-3-{[3-(2-{4-[2-(1-{2-[(3S)-2,6-dioxopiperidin-3-yl]-1-oxo-2,3-dihydro-1H-isoindol-5-yl}-4-hydroxypiperidin-4-yl)acetyl]piperazin-1-yl}pyrimidin-5-yl)-4-oxo-3,4-dihydroquinazolin-6-yl]oxy}-4-fluorophenyl)-3-fluoropyrrolidine-1-sulfonamide]	50 to 500	35 to 70	1 to 10	35 to 70

More lines, now with the values ahead:

DC50 (B-RAF V600E) [nM]	Dmax (B-RAF V600E) [%]	DC50 (B-RAF G466V) [nM]	Dmax (B-RAF G466V) [%]	SMILES
5 to 50	35 to 70	> 30	–	N#Cc1c(NS(=O)(=O)N2CC[C@@H](F)C2)ccc(F)c1Oc1ccc2ncn(-c3ccc(N4CCN(CC5CCN(c6ccc(NC7CCC(=O)NC7=O)cc6F)CC5)CC4)cc3)c(=O)c2c1 (stereo partly drawn) [Example 11, (3R)-N-(2-cyano-3-{[3-(4-{4-[(1-{4-[(2,6-dioxopiperidin-3-yl)amino]-2-fluorophenyl}piperidin-4-yl)methyl]piperazin-1-yl}phenyl)-4-oxo-3,4-dihydroquinazolin-6-yl]oxy}-4-fluorophenyl)-3-fluoropyrrolidine-1-sulfonamide]
5 to 50	35 to 70	> 30	–	N#Cc1c(NS(=O)(=O)N2CC[C@@H](F)C2)ccc(F)c1Oc1ccc2ncn(-c3ccc(N4CCN(CC5CCN(c6ccc(NC7CCC(=O)NC7=O)cc6F)CC5)CC4)nc3)c(=O)c2c1 (stereo partly drawn) [Example 12, (3R)-N-(2-cyano-3-{[3-(6-{4-[(1-{4-[(2,6-dioxopiperidin-3-yl)amino]-2-fluorophenyl}piperidin-4-yl)methyl]piperazin-1-yl}pyridin-3-yl)-4-oxo-3,4-dihydroquinazolin-6-yl]oxy}-4-fluorophenyl)-3-fluoropyrrolidine-1-sulfonamide]
5 to 50	35 to 70	> 30	–	N#Cc1c(NS(=O)(=O)N2CC[C@@H](F)C2)ccc(F)c1Oc1ccc2ncn(-c3ccc(N4CCN(CC5CCN(c6ccc(C7CCC(=O)NC7=O)cc6F)CC5)CC4)cc3)c(=O)c2c1 (stereo partly drawn) [Example 13, (3R)-N-{2-cyano-3-[(3-{4-[4-({1-[4-(2,6-dioxopiperidin-3-yl)-2-fluorophenyl]piperidin-4-yl}methyl)piperazin-1-yl]phenyl}-4-oxo-3,4-dihydroquinazolin-6-yl)oxy]-4-fluorophenyl}-3-fluoropyrrolidine-1-sulfonamide]
50 to 500	35 to 70	> 30	–	N#Cc1c(NS(=O)(=O)N2CC[C@@H](F)C2)ccc(F)c1Oc1ccc2ncn(-c3ccc(N4CCN(CC5CCN(c6ccc(C7CCC(=O)NC7=O)cc6F)CC5)CC4)nc3)c(=O)c2c1 (stereo partly drawn) [Example 14, (3R)-N-{2-cyano-3-[(3-{6-[4-({1[4-(2,6-dioxopiperidin-3-yl)-2-fluorophenyl]piperidin-4-yl}methyl)piperazin-1-yl]pyridin-3-yl}-4-oxo-3,4-dihydroquinazolin-6-yl)oxy]-4-fluorophenyl}-3-fluoropyrrolidine-1-sulfonamide]
50 to 500	35 to 70	> 30	–	N#Cc1c(NS(=O)(=O)N2CC[C@@H](F)C2)ccc(F)c1Oc1ccc2ncn(-c3ccc(N4CCC(c5ccc6c(c5)C(=O)N(C5CCC(=O)NC5=O)C6)CC4)cc3)c(=O)c2c1 (stereo partly drawn) [Example 32, (3R)-N-(2-cyano-3-{[3-(4-{4-[2-(2,6-dioxopiperidin-3-yl)-3-oxo-2,3-dihydro-1H-isoindol-5-yl]piperidin-1-yl}phenyl)-4-oxo-3,4-dihydroquinazolin-6-yl]oxy}-4-fluorophenyl)-3-fluoropyrrolidine-1-sulfonamide]
